The source of these data is publication PMC6320863, “Interaction of Chrysin and Its Main Conjugated Metabolites Chrysin-7-Sulfate and Chrysin-7-Glucuronide with Serum Albumin” (International Journal of Molecular Sciences, 2018).

Series [1] deals with T1, warfarin–HSA complex (Sudlow's Site I).
T1 construct: purchased Sigma-Aldrich
In words: Ultrafiltration: displacement of Site I marker warfarin from HSA. The class given is binding, human. Particulars: 1 µmol/L warfarin, 5 µmol/L HSA, PBS pH 7.4. How it is done: (§1) Effects of chrysin, C7S, and C7G on the albumin-binding of Sudow’s Site I (warfarin) and Site II (naproxen) markers were tested by ultrafiltration. In these experiments, Pall Microsep^TM Advance Centrifugal Devices (Pall Corporation, Ann Arbor, MI, USA) (from VWR) with a 30 kDa molecular weight cut-off value were employed, as described elsewhere. To examine the displacement of warfarin by flavonoids, samples contained warfarin and HSA (1.0 and 5.0 µmol/L, respectively) in the absence and presence of flavonoids (10 or 20 µmol/L). Furthermore, to test the displacing ability of chrysin and its metabolites vs. naproxen, flavonoids (10 or 20 µmol/L) were added to naproxen and HSA (1.0 and 1.7 µmol/L, respectively). Each sample was prepared in PBS (pH 7.4). Before ultrafiltration, filter units were washed once with 3 mL of water, and twice with 3 mL of PBS (to completely eliminate glycerol from the filters). Thereafter, samples (2.5 mL each) were driven through the filter units by centrifugation at 7500 g and 25 °C for 10 min (fixed angle rotor). Concentrations of warfarin and naproxen in the filtrate were quantified with HPLC (see details in Section 4.4).
(§2) The HPLC system used to quantify warfarin and naproxen was equipped with a pump (model 510, Waters, Milford, MA, USA) and an injector (Rheodyne 7125, Rheodyne, Berkeley, CA, USA) with a 20 µL sample loop. Warfarin and naproxen were analyzed with a fluorescence detector (Jasco FP-920, Reanal) and an UV detector (Waters 486), respectively. Data were evaluated using Millennium Chromatography Manager (Waters).
Warfarin was analyzed based on the previously reported method without modifications. Methanol (VWR), acetonitrile (VWR), and sodium phosphate buffer (20 mM, pH 7.0) (25:5:70 v/v%) were applied in the mobile phase with 1 mL/min flow rate during the isocratic elution. Samples were driven through a guard column (Phenomenex SecurityGuard^TM Catridge C18 4.0 × 3.0 mm) linked to an analytical column (Nova-Pak C18 150 × 3.9 mm, 4 μm). Separation and analysis were performed at room temperature, during which warfarin was detected by fluorescence employing 310 and 390 nm as excitation and emission wavelengths, respectively.

Series [2] addresses T2, human serum albumin (HSA) (Homo sapiens, UniProt P02768).
T2 construct: purchased Sigma-Aldrich
In words: Fluorescence quenching of HSA by flavonoids (Stern–Volmer and Hyperquad2006 evaluation). In kind it is binding. To be noted: for Kd / logKSV (Stern–Volmer quenching constant): HSA 2 µmol/L, decimal log ± SEM; for Kd: PBS pH 7.4, Hyperquad2006, read-out: logK (binding constant) (converted); for logKSV (Stern–Volmer quenching constant): PBS pH 7.4, λex 295 nm, λem 340 nm; for Stability of flavonoid–HSA complex vs. the chrysin–HSA complex: relative to chrysin–HSA. How it is done:
(§3) Fluorescence spectroscopic measurements were carried out employing a Hitachi F-4500 fluorimeter (Tokyo, Japan). Absorption spectra of flavonoids were recorded using a HALO DB-20 UV-Vis spectrophotometer (Dynamica, London, UK). Spectroscopic measurements were performed in phosphate-buffered saline (pH 7.4; PBS: 8.0 g/L NaCl, 0.2 g/L KCl, 1.81 g/L Na2HPO4·2H2O, and 0.24 g/L KH2PO4) at room temperature, in the presence of air.
(§4) The complex formation of flavonoids with albumin was tested with both HSA and BSA. Binding constants of flavonoid–albumin complexes were determined by fluorescence quenching, during which emission spectra of albumins (2 µmol/L) were recorded in the presence of increasing flavonoid concentrations (0.0, 0.5, 1.0, 2.0, 3.0, 4.0 and 5.0 µmol/L; λexc = 295 nm). Quenching studies were evaluated based on the graphical application of the Stern–Volmer equation [31, 34]. To eliminate the potential inner filter effects of flavonoids, fluorescence intensities were corrected as described.
(§5) Binding constants (K) of flavonoid–albumin complexes were also evaluated by non-linear fitting employing the Hyperquad2006 program package (Protonic Software, Leeds, UK) as described elsewhere. Binding constants and stoichiometry were quantified based on the model with the lowest standard deviation.

In series [3] the test system is T3, warfarin–HSA complex.
T3 construct: purchased Sigma-Aldrich
The experiment in a line: Steady-state fluorescence of warfarin–HSA complex (displacement of warfarin). In kind it is binding, human. Particulars: 1.0 µmol/L warfarin, 3.5 µmol/L HSA, flavonoid 0.5–10 µmol/L, λex 317 nm. On the procedure: as §3
Displacement of warfarin (site marker of Sudlow’s Site I) from HSA was examined based on the previously reported model. Increasing concentrations of chrysin, C7S, and C7G (0.0, 0.5, 1.0, 2.0, 3.0, 5.0, and 10 µmol/L) were added to standard concentrations of warfarin and HSA (1.0 and 3.5 µmol/L, respectively). Thereafter, fluorescence emission spectra were recorded using 317 nm as excitation wavelength.

Series [4] has as its target T4, bovine serum albumin (BSA) (Bos taurus, UniProt P02769).
T4 construct: purchased Sigma-Aldrich
In words: Fluorescence quenching of BSA by flavonoids (Stern–Volmer and Hyperquad2006 evaluation). The class given is binding. Particulars: BSA 2 µmol/L, decimal log ± SEM; for Kd: PBS pH 7.4, Hyperquad2006, read-out: logK (binding constant) (converted); for logKSV (Stern–Volmer quenching constant): PBS pH 7.4, λex 295 nm, λem 340 nm. On the procedure:
as §3, §4, §5

Series [5] has as its system T5, naproxen–HSA complex (Sudlow's Site II).
T5 construct: purchased Sigma-Aldrich
The experiment in a line: Ultrafiltration: displacement of Site II marker naproxen from HSA. In kind it is binding, human. To be noted: 1 µmol/L naproxen, 1.7 µmol/L HSA, PBS pH 7.4. On the procedure: as §1, §2
Naproxen was quantified based on the previously reported method without modifications. Acetonitrile and sodium acetate buffer (6.9 mM, pH 4.0) (50:50 v/v%) were applied in the mobile phase with a 1 mL/min flow rate during the isocratic elution. […] Separation and analysis were performed at room temperature, during which naproxen was detected by absorbance at 230 nm.

Details of series [6]: method as in PMID 25715997. Particulars: mice, oral administration of 20 mg/kg chrysin; read-out: Cmax (peak plasma concentration); cited from earlier work.
The subject of series [7] is T3, warfarin–HSA complex. The experiment in a line: Fluorescence anisotropy of warfarin–HSA complex. The class given is binding, human. To be noted: 1.0 µmol/L warfarin, 2.0 µmol/L HSA, increasing flavonoid concentrations, λex 317 nm, λem 379 nm. How it is done: as §3
To confirm further the displacement of warfarin from HSA by chrysin, C7S, and C7G, fluorescence anisotropy measurements were also performed. Increasing concentrations of flavonoids (0.0, 1.0, 2.0, 5.0, and 10 µmol/L) were added to warfarin and HSA (1.0 and 2.0 µmol/L, respectively). Fluorescence anisotropy values were determined (λex = 317 nm; λem = 379 nm) as described.
In general terms: In fluorescence polarisation assays a small probe gives low polarisation when free and higher when bound to something large.

On the set-up of series [8]: method as in PMID 11259985. To be noted: healthy human volunteers, 400 mg chrysin orally; cited from earlier work.
The subject of the next series is HSA. To be noted: cited from earlier work.
[9] abbreviates: 10 or 20 μM flavonoid (both concentrations).
The mark [10] stands for this setting: 10 and 20 μM flavonoid (both concentrations).

T4 sequence (P02769 25-607): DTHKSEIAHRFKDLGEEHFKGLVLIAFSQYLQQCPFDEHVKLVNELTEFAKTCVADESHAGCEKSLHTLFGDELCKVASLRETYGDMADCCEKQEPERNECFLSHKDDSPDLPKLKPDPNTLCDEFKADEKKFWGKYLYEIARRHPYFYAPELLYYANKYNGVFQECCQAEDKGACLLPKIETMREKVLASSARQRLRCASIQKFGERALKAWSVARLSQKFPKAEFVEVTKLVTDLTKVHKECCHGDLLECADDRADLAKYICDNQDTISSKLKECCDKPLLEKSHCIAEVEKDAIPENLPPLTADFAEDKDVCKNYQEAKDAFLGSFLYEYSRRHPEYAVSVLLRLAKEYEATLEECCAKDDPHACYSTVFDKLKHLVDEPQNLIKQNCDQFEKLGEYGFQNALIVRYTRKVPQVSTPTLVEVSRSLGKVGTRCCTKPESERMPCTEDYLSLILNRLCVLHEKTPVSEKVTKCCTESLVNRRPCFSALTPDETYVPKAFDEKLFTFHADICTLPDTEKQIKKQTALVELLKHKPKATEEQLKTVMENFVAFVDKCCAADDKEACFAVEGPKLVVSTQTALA
T2 sequence (P02768 25-609): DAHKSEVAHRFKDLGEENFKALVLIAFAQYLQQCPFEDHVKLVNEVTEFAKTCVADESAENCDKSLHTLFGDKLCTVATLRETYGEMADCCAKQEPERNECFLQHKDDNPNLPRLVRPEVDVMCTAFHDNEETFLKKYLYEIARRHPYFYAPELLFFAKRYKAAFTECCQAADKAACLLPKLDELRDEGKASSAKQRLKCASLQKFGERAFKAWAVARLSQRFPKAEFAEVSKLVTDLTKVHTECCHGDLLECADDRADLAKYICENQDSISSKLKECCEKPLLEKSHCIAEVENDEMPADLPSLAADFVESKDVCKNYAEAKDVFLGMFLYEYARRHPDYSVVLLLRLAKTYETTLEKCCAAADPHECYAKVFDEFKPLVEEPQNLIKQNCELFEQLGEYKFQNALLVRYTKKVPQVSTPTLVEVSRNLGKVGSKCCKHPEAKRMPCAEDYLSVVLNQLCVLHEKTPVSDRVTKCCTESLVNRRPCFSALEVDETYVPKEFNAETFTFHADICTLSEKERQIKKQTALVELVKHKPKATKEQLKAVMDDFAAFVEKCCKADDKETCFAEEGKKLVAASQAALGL

Regarding `O=C(O)C1OC(Oc2cc(O)c3c(=O)cc(-c4ccccc4)oc3c2)C(O)C(O)C1O` (stereo not shown) [Chrysin-7-glucuronide, chrysin-7-glucuronide], the “Concentration of warfarin in the filtrate” value (“Concentration of warfarin” below) in [1] (setting [9]) is listed as “did not significantly change”. In addition, in series [2], the Kd is 12.9 µM, the “logKSV (Stern–Volmer quenching constant)” value is listed as 4.71 ± 0.03 L/mol and the “Stability of flavonoid–HSA complex vs. the chrysin–HSA complex” value is listed as “threefold lower”. In addition, the “Fluorescence emission signal of warfarin at 379 nm” value (“Fluorescence emission signal” below) with warfarin–HSA complex [3] is on record as “only a slight (but statistically significant) effect”. Also, in [4], the Kd is 23.4 µM and the “logKSV (Stern–Volmer quenching constant)” value came to 4.34 ± 0.03 L/mol. The “Concentration of naproxen in the filtrate” value (“Concentration of naproxen” below) in series [5] (higher flavonoid concentration (20 μM)) is “significant effect”. The Cmax in series [6] is 130 nM.

Turning to `O=c1cc(-c2ccccc2)oc2cc(OS(=O)(=O)O)cc(O)c12` [Chrysin-7-sulfate, chrysin-7-sulfate], the “Concentration of warfarin” value in series [1] (10 μM flavonoid) is reported as “remarkable increase”. Besides, the “Concentration of warfarin” value in [1] (setting [9]) is “practically the complete displacement of bound warfarin molecules from HSA”. Moreover, the “Fluorescence anisotropy of warfarin” value in the series on warfarin–HSA complex [7] is reported as “strong decrease”. In addition, in series [2], the Kd was 1.32 µM, the “logKSV (Stern–Volmer quenching constant)” value was 5.61 ± 0.03 L/mol and the “Stability of flavonoid–HSA complex vs. the chrysin–HSA complex” value was “threefold higher”. The “Fluorescence emission signal” value with warfarin–HSA complex [3] was “strongest decrease”. Moreover, in series [8], the “AUC0–∞” value was 420 to 4220 ng·h/mL and the “AUC0–∞ of C7S compared with chrysin” value is on record as “approximately 30 fold”. Also, in series [4], the Kd was 0.631 µM and the “logKSV (Stern–Volmer quenching constant)” value is 5.86 ± 0.04 L/mol. Besides, the “Concentration of naproxen” value in series [5] (setting [10]) is “statistically significant elevation”. Also, in series [6], the Cmax was 160 nM.

Turning to `C[C@@H]1Cc2c(Cl)cc(C(=O)N[C@@H](Cc3ccccc3)C(=O)O)c(O)c2C(=O)O1` [Ochratoxin A, ochratoxin A, reference compound], the “logK (complex with HSA)” value in the series on HSA is 7.4–7.6.

With `O=c1cc(-c2ccccc2)oc2cc(O)cc(O)c12` [Chrysin, 5,7-dihydroxyflavone], the “Concentration of warfarin” value in series [1] (20 μM flavonoid) is listed as “statistically significant (albeit slight) increase”. Moreover, the “Fluorescence anisotropy of warfarin” value with warfarin–HSA complex [7] was “strong decrease”. The Kd in [2] is 3.89 µM; in series [4], 6.31 µM. In addition, the results for the “logKSV (Stern–Volmer quenching constant)” value in [2] and in series [4] were 5.25 ± 0.02 L/mol and 5.03 ± 0.06 L/mol, respectively. Further, the “Fluorescence emission signal” value in the series on warfarin–HSA complex [3] is “significantly decreased”. In [8], the “AUC0–∞” value is 3 to 16 ng·h/mL. At HSA, the “K (binding constant to HSA)” value was 10^5–10^6 L/mol. Further, the “Concentration of naproxen” value in [5] (setting [10]) is “statistically significant elevation”. Also, in [6], the Cmax was 10 nM.
